Test results as given in PubChem BioAssay AID2060351 (Molecular Pharmacology Branch, DTP, NCI, 2025).

Test system: 521955-158-R7-J2-PDC spheroids, viability % test/control
Test: Anticancer human tumor 521955-158-R7-J2-PDC patient-derived pancreatic carcinoma cell line growth inhibition [TAK]
Conditions: spheroids with HUVEC and MSC; for IC50: curve of first compound; for viability, T/C: stronger effect = lower value
Method in brief: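 Drug combinations, each paired with TAK-243 or ipatasertib, were tested on multi-cell spheroids of 60% malignant cells, 25% HUVEC and 15% hMSC. Top concentrations were at or near the clinical Cmax (10 microM if undetermined), decreasing by half-log; viability is given as % test/control.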

[1] = second compound 0.3 µM, first compound 0.0316 µM
[2] = second compound 0.3 µM, first compound 0.1 µM
[3] = second compound 0.3 µM, first compound 0.316 µM
[4] = second compound 0.3 µM, first compound 1 µM
[5] = second compound 0.949 µM, first compound 0.0316 µM
[6] = second compound 0.949 µM, first compound 0.1 µM
[7] = second compound 0.949 µM, first compound 0.316 µM
[8] = second compound 0.949 µM, first compound 1 µM
[9] = second compound 3 µM, first compound 0.0316 µM
[10] = second compound 3 µM, first compound 0.1 µM
[11] = second compound 3 µM, first compound 0.316 µM
[12] = second compound 3 µM, first compound 1 µM
[13] = second compound 9.49 µM, first compound 0.0316 µM
[14] = second compound 9.49 µM, first compound 0.1 µM
[15] = second compound 9.49 µM, first compound 0.316 µM
[16] = second compound 9.49 µM, first compound 1 µM
[17] = second compound 30 µM, first compound 0.0316 µM
[18] = second compound 30 µM, first compound 0.1 µM
[19] = second compound 30 µM, first compound 0.316 µM
[20] = second compound 30 µM, first compound 1 µM
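Note: spheroids exposed to compound for 7 days before readout.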
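Throughout, for viability, T/C: 100% = DMSO vehicle control wells.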

SMILES	IC50 (second compound 0.3 µM) [µM]	IC50 (second compound 0.949 µM) [µM]	IC50 (second compound 3 µM) [µM]	IC50 (second compound 9.49 µM) [µM]	IC50 (second compound 30 µM) [µM]	viability, T/C [1] [%]	viability, T/C [2] [%]	viability, T/C [3] [%]	viability, T/C [4] [%]	viability, T/C [5] [%]	viability, T/C [6] [%]	viability, T/C [7] [%]	viability, T/C [8] [%]	viability, T/C [9] [%]	viability, T/C [10] [%]	viability, T/C [11] [%]	viability, T/C [12] [%]	viability, T/C [13] [%]	viability, T/C [14] [%]	viability, T/C [15] [%]	also measured
COc1c(OCCCN2CCOCC2)ccc2c3n(c(=NC(=O)c4cnc(N)nc4)nc12)CCN3 + CC(C)NCC(C(=O)N1CCN(c2ncnc3c2C(C)CC3O)CC1)c1ccc(Cl)cc1	0.0219	0.022	0.00721	0.0062	0.00338	40.9	27.5	13.7	11	43.1	19.6	13.7	9.02	29.2	24.9	13	10.4	31	21.7	14.3	viability, T/C (second compound 0.3 µM, first compound 0.00316 µM): 102%; viability, T/C (second compound 0.3 µM, first compound 0.01 µM): 67.6%; viability, T/C (second compound 0.949 µM, first compound 0.00316 µM): 81%; viability, T/C (second compound 0.949 µM, first compound 0.01 µM): 66.5%; viability, T/C (second compound 3 µM, first compound 0.00316 µM): 55%; viability, T/C (second compound 3 µM, first compound 0.01 µM): 51.1%; viability, T/C (second compound 9.49 µM, first compound 0.00316 µM): 64.3%; viability, T/C (second compound 9.49 µM, first compound 0.01 µM): 36.3%; viability, T/C [16]: 12.2%; viability, T/C (second compound 30 µM, first compound 0.00316 µM): 50.4%; viability, T/C (second compound 30 µM, first compound 0.01 µM): 40.6%; viability, T/C [17]: 27.8%; viability, T/C [18]: 19.8%; viability, T/C [19]: 17.1%; viability, T/C [20]: 11.5%
Cc1nc(NC(=O)N2CCCC2C(N)=O)sc1-c1ccnc(C(C)(C)C(F)(F)F)c1 (stereo not given) + CC(C)NCC(C(=O)N1CCN(c2ncnc3c2C(C)CC3O)CC1)c1ccc(Cl)cc1	5.65	3.05	1.32	0.384	0.28	106	106	83.6	62.2	84	82.6	64.6	54.7	90	79	54.6	57.3	92.6	70.1	48	viability, T/C (second compound 0.3 µM, first compound 3.16 µM): 69.5%; viability, T/C (second compound 0.3 µM, first compound 10 µM): 38.6%; viability, T/C (second compound 0.949 µM, first compound 3.16 µM): 60.5%; viability, T/C (second compound 0.949 µM, first compound 10 µM): 33.6%; viability, T/C (second compound 3 µM, first compound 3.16 µM): 45.4%; viability, T/C (second compound 3 µM, first compound 10 µM): 30.8%; viability, T/C [16]: 43%; viability, T/C (second compound 9.49 µM, first compound 3.16 µM): 36.7%; viability, T/C (second compound 9.49 µM, first compound 10 µM): 27.8%; viability, T/C [17]: 93.7%; viability, T/C [18]: 79.7%; viability, T/C [19]: 44.6%; viability, T/C [20]: 43.2%; viability, T/C (second compound 30 µM, first compound 3.16 µM): 39.7%; viability, T/C (second compound 30 µM, first compound 10 µM): 25.6%
